This passage reports inhibition results from ChEMBL document CHEMBL5696442, “Discovery of type II inhibitors of TGFβ-activated kinase 1 (TAK1) and mitogen-activated protein kinase kinase kinase kinase 2 (MAP4K2)” (J Med Chem, 2015).

Assay [1] addresses Serine/threonine-protein kinase mTOR (Homo sapiens) (UniProt P42345). The assay can be described thus: Inhibition of MTOR (unknown origin) at 1 uM by Ambit Kinomescan binding assay relative to control.
The target of assay [2] is T1, Mitogen-activated protein kinase kinase kinase 5 (Homo sapiens) (UniProt Q99683).
T1 sequence (whole entry): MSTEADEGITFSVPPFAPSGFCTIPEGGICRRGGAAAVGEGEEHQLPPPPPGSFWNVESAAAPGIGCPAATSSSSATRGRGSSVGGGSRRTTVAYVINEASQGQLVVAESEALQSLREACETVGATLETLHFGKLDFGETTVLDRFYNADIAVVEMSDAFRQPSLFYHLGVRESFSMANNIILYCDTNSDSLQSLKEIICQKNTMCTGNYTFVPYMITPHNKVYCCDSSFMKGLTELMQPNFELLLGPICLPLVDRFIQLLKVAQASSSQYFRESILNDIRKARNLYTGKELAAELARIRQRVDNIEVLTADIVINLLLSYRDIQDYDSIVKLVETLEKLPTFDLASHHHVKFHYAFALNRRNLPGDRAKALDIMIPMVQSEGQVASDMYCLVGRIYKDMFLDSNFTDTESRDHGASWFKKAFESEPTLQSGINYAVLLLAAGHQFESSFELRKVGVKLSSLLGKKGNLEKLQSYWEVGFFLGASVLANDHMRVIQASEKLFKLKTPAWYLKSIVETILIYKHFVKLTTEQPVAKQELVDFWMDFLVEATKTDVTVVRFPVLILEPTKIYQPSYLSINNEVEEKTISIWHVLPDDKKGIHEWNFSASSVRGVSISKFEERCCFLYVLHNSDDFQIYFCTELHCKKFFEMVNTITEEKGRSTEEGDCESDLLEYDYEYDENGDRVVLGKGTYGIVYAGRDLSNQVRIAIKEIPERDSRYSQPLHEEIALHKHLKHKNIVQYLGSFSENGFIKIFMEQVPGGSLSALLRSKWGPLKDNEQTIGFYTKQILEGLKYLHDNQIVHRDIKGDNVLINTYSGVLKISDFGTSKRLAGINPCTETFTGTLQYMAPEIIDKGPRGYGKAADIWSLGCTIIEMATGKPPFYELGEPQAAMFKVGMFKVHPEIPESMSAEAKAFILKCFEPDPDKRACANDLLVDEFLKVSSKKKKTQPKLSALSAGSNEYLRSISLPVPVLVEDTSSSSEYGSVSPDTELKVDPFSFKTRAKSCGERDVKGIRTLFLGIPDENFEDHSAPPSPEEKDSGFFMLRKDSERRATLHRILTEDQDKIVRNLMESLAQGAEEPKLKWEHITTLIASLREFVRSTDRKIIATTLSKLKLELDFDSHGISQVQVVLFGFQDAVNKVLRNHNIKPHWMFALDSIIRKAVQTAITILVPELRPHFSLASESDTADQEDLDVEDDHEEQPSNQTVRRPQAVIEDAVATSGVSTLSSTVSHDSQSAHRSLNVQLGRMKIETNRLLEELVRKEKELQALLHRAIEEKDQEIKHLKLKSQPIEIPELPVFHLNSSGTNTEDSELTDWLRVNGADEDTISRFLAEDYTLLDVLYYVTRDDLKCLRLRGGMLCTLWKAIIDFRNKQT
The assay can be described thus: Inhibition of MAP3K5 Lys1 labeling site harbouring IAIKEIPER in human A-375 cells at 5 uM by KiNativ Profiling analysis relative to control. It counts as cell-based.

In assay [3] the target is Interleukin-1 receptor-associated kinase 3 (Homo sapiens) (UniProt Q9Y616). Put plainly: Inhibition of IRAK3 (unknown origin) at 10 uM by Ambit Kinomescan binding assay.
Assay [4] has as its target Epidermal growth factor receptor (Homo sapiens) (UniProt P00533). Put plainly: Inhibition of EGFR Lys1 labeling site harbouring GLWIPEGEKVKIPVAIKELR in human Huh-7 cells at 1 uM by KiNativ Profiling analysis relative to control. It counts as cell-based.
For assay [5], the target named is T2, Serine/threonine-protein kinase TAO3 (Homo sapiens) (UniProt Q9H2K8).
T2 sequence (whole entry): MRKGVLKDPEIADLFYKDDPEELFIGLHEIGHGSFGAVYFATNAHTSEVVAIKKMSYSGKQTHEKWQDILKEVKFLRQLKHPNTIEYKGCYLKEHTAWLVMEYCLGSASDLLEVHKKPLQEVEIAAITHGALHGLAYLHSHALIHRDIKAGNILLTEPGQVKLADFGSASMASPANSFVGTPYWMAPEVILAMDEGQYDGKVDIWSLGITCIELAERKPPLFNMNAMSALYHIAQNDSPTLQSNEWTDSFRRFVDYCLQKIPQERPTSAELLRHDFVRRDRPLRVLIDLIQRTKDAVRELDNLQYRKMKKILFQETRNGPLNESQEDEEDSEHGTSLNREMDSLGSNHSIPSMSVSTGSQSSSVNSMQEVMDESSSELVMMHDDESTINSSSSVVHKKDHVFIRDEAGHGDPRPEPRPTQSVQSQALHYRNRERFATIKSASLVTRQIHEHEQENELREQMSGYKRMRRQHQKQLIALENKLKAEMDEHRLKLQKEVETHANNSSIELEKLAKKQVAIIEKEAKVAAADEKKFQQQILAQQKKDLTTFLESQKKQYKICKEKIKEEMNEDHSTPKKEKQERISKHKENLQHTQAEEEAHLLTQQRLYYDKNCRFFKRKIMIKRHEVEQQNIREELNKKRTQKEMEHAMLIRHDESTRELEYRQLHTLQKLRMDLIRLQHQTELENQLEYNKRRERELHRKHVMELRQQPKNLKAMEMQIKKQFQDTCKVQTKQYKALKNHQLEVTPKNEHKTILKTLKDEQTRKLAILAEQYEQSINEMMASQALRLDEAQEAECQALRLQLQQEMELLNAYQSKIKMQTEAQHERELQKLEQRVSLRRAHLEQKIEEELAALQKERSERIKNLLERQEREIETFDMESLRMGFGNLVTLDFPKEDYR
Put plainly: Inhibition of TAO3 Lys2 labeling site in human Huh-7 cells at 1 uM by KiNativ Profiling analysis relative to control. It counts as cell-based.

The source made the active and inactive calls. The rule behind the calls is not given here.

Interleukin-1 receptor-associated kinase 3 (Homo sapiens), sequence (Q9Y616 whole entry): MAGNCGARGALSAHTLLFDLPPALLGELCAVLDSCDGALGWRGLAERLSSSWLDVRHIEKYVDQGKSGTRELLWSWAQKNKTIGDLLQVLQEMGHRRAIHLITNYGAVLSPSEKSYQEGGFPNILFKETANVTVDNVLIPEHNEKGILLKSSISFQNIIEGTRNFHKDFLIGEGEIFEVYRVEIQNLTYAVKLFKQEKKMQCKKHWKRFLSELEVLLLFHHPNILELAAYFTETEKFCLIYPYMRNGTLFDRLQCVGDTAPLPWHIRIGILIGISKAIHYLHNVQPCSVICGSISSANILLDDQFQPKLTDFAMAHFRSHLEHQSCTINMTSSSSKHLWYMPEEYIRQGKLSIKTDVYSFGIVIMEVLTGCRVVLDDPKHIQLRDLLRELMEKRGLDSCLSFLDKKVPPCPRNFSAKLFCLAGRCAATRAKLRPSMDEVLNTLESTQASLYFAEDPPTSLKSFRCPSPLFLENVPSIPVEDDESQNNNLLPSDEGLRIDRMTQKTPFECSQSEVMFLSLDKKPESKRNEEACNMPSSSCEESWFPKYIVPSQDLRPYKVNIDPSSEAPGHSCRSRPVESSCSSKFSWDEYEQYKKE
Epidermal growth factor receptor (Homo sapiens), sequence (P00533 whole entry): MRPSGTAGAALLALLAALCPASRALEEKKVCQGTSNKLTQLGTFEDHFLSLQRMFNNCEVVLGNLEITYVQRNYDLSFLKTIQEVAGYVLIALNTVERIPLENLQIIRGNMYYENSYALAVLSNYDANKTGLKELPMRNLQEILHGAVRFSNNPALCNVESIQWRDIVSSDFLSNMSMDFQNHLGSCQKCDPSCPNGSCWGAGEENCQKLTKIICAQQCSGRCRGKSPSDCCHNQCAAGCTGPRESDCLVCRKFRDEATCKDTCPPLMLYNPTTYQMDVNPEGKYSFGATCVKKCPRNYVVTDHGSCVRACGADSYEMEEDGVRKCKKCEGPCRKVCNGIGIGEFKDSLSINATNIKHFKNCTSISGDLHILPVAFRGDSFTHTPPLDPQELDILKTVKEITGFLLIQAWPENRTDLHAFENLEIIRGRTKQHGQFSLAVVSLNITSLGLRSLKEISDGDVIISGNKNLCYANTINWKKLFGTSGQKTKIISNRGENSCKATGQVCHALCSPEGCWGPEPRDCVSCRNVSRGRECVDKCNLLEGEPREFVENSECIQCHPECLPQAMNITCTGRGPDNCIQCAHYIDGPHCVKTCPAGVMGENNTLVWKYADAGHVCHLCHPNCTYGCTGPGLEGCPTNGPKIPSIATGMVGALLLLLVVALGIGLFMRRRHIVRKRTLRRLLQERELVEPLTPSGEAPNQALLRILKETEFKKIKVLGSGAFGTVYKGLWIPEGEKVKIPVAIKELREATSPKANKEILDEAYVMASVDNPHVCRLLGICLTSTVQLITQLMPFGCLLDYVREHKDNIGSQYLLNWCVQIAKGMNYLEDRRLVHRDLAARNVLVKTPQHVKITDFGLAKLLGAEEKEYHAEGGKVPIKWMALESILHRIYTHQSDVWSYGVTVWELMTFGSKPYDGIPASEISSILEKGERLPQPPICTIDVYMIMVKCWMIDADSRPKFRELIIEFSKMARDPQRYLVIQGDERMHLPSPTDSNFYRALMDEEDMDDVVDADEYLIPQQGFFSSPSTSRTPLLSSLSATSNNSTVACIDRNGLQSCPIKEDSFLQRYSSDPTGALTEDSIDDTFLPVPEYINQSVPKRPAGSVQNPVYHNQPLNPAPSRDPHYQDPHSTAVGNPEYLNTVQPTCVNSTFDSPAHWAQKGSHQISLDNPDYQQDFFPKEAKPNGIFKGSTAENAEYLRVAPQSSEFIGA

The inhibition is the relative decrease from the control value, in per cent. As for `CCN1CCN(Cc2ccc(NC(=O)c3ccc(C)c(/C=C/c4cnc5[nH]ccc5c4OC)c3)cc2C(F)(F)F)CC1`, the inhibition in assay [1] came out at 100%. Regarding `CCN1CCN(Cc2ccc(NC(=O)c3ccc(C)c(Oc4ccnc5[nH]ccc45)c3)cc2C(F)(F)F)CC1`, the inhibition in assay [2] is -0.6%. The inhibition entry in assay [3] is “inactive”. For `CNc1cc(Oc2cc(C(=O)Nc3cc(N4CCN(C)CC4)cc(C(F)(F)F)c3)ccc2C)ncn1`, the inhibition in assay [4] was -5.2%; in assay [5], 0.4%.
